# Results as given in publication PMC3342448 (Cancer Research, 2012).
# Key:
# 184B5-MT cells [1] = assay: Transwell migration assay on COL-I, 184B5-MT cells; assay type: cell-based, Human; conditions: compounds 10–100 μM, 16–18 h
# CAT = CAT (Homo sapiens, UniProt P50281); assay: Cleavage of fluorescent peptide by MT1-MMP catalytic domain; assay type: biochemical; conditions: CAT 10 nM, fluorescent substrate 10 μM
# MCF7-β3/MT cells [2] = assay: Cell viability; assay type: cell-based, Human; conditions: 400 μM, 6 h
# cellular MT1-MMP = cellular MT1-MMP (Homo sapiens, UniProt P50281); assay: Gelatin zymography of MMP-2 activation by 184B5-MT cells; assay type: cell-based; conditions: 184B5-MT cells with proMMP-2, compound 1–100 μM
# MT1-MMP homodimerization = MT1-MMP homodimerization (Homo sapiens, UniProt P50281); assay: MT1-MMP dimerization test; assay type: cell-based; conditions: compounds 100 μM, 24 h, MCF7-MT-V5 cells transfected with MT1-MMP-FLAG
# MCF7-β3/MT xenografts = assay: MCF7-β3/MT tumor xenografts in mice; assay type: in vivo
# MT1-MMP = MT1-MMP (Homo sapiens, UniProt P50281); assay: Gelatin zymography of MCF7-β3/MT tumor extracts; assay type: in vivo; conditions: tumor extracts of mice treated 0.5 mg/kg intratumoral
# [3] = Solubility in aqueous solutions; assay type: physicochemical; conditions: 400 μM stock in PBS was highest reachable
# 184B5-MT cells [4] = assay: Cell adhesion assay on COL-I and Matrigel, 184B5-MT cells; assay type: cell-based, Human; conditions: compounds 25–100 μM, 1 h adhesion
# MMP-2 = target: T1, MMP-2 (Homo sapiens, UniProt P08253); assay: Catalytic activity of MMP-2; assay type: biochemical; conditions: not shown
# T1 sequence (P08253 110-660): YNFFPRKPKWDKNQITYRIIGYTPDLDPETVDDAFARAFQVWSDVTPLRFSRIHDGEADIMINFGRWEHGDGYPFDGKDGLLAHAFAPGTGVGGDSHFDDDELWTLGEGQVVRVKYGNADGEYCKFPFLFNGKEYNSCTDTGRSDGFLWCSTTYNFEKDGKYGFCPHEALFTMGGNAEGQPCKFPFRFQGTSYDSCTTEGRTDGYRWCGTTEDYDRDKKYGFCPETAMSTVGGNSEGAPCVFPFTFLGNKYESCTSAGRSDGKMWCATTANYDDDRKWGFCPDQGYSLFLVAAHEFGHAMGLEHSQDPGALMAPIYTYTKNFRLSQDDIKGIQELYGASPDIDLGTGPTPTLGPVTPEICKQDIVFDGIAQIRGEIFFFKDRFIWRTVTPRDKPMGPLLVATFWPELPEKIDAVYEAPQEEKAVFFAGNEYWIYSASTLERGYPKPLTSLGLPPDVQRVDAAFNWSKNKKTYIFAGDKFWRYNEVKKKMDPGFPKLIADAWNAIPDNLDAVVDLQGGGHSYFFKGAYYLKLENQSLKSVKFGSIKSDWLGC
# MCF7-β3/MT cells [5] = assay: COL-I degradation assay, MCF7-β3/MT cells; assay type: cell-based, Human; conditions: compound 100 μM, 3 days
# MDA-MB-231 cells = assay: Transwell migration assay on COL-I, MDA-MB-231 cells; assay type: cell-based, Human; conditions: compounds 100 μM
compound,measurement,setting,value
CCCC(C)NC(=O)c1ccc(Cl)c(Cl)c1 (stereo not drawn) [compound 9],migration of 184B5-MT cells on COL-I,184B5-MT cells [1],repressed migration of 184B5-MT cells on COL-I in a dose-dependent manner
same,effect on cleavage activity of CAT,CAT,did not affect the cleavage activity
same,cytotoxicity in MCF7-β3/MT cells,MCF7-β3/MT cells [2],did not demonstrate any cytotoxicity
same,catalytic function of cellular MT1-MMP (MMP-2 activation),cellular MT1-MMP,did not inhibit
same,levels of co-precipitated MT1-MMP-V5 in pull-down samples (homodimerization),MT1-MMP homodimerization,significantly reduced
same,physical damage and necrosis in tumors after injections,MCF7-β3/MT xenografts; 0.5 mg/kg intratumoral,no physical damage and necrosis
same,tumor phenotype,MCF7-β3/MT xenografts; 0.5 mg/kg intratumoral injections,caused a fibrotic tumor phenotype
same,xenograft angiogenesis (H&E staining),"MCF7-β3/MT xenografts; 0.5 mg/kg intratumoral, compared with control mice",did not reveal any significant effect
same,immunoreactivity and levels of COL-I in tumors,"MCF7-β3/MT xenografts; 0.5 mg/kg intratumoral, experimental versus control",significantly enhanced
same,ability of MT1-MMP to activate MMP-2 in tumors,MT1-MMP,did not affect
same,solubility,[3],limited solubility
same,adhesion of 184B5-MT on Matrigel and COL-I substrates,184B5-MT cells [4],did not affect cell adhesion
same,catalytic activity of MMP-2,MMP-2,did not inhibit
same,collagenolytic activity (COL-I degradation) in MCF7-β3/MT cells,MCF7-β3/MT cells [5],dramatically reduced
same,migration of MDA-MB-231 cells,MDA-MB-231 cells,did not show any inhibitory effect
